Assay results: patent US9545367B2, “Cosmetic use of N-heteroarylbisamide analogs and related compounds” (Avon Products, Inc., priority 2011, dated 2017)

Tests used:
Format in all cases: cell-based, human
explanted skin tissue = test: Skin explant assay, hematoxylin and eosin histology; conditions: skin explants, 0.025 weight percent, administered days 0, 1, 2, 5, 7; nine days in culture; vs vehicle control; FIG. 1B
Experimental: (§1) Samples of explanted skin tissue were obtained from an abdominal plasty of a person. Samples (33 samples in total) were maintained in tissue culture medium at 37° C. in a humid, 5%-CO2 atmosphere for the duration of the study.
(§2) The skin tissue explants were then distributed into appropriate controls or treated samples in triplicates. The controls received only a vehicle, and the treatment samples received 0.025 weight percent of Analog A disclosed above. The vehicle and Analog A were administered to the controls and treatment samples, respectively, on days 0, 1, 2, 5, and 7.
(§3) After nine days in culture the vehicle and Analog A treated samples were collected and processed for histology and immunostaining Initially, the samples were fixed in buffered formalin for 24 hours. […] Tissue samples were also stained for procollagen I using a Procollagen I rat monoclonal antibody with streptavidin alkaline phosphatase conjugate (Vectastain, Vector labs) and Vector® blue substrate detection system (Vector Laboratories LTD., Peterborough, UK), and hyaluronic acid using biotinylated affinity purified Hyaluronic Acid Binding Protein ((bovine nasal cartilage) Calbiochem, EMD Chemicals USA) and detected using the aforementioned detection system […]

Procollagen 1 = test: Skin explant assay, procollagen I immunostaining; conditions: skin explants, 0.025 weight percent, nine days in culture; FIGS. 3A and 3B
Experimental: as §1, §2, §3

Hyaluronic Acid = test: Skin explant assay, Hyaluronic Acid Binding Protein staining; conditions: skin explants, 0.025 weight percent, nine days in culture; FIGS. 2A and 2B
Experimental: as §1, §2, §3

Cc1cccc(-n2nc(C(C)(C)C)cc2NC(=O)CCCC(=O)NC(C)C(C)C)c1 (stereo not shown) [Analog A]
cell density throughout the basal epidermis (hematoxylin and eosin stain) (explanted skin tissue): maintained their cell density throughout the basal epidermis
contact with the basal layer (hematoxylin and eosin stain) (explanted skin tissue): good contact with the basal layer
expression of Procollagen 1 in comparison to the vehicle control (Procollagen 1): increased
expression of Hyaluronic Acid in comparison to the vehicle control (Hyaluronic Acid): increased
